Laboratory results published in ChEMBL document CHEMBL2163222 (J Med Chem, 2012).

How the values were obtained:
[1] = tested on: OE33; assay: Growth inhibition of human OE33 cells after 3 days by MTT assay; format: functional, cell-based; settings: OE33, 72 h
[2] = Growth inhibition of human OE21 cells after 3 days by MTT assay; format: functional, cell-based; settings: OE21, 72 h
[3] = cells; settings: Homo sapiens, U373 MG, 72 h
[4] = tested on: Hs 683; assay: cells; settings: Homo sapiens, Hs 683, 72 h
[5] = tested on: T98G; assay: cells; settings: Homo sapiens, 72 h

Row | Compound | IC50 [1] | IC50 [2] | IC50 [3] | IC50 [4] | IC50 [5]
1 | Cc1nccc2c1[nH]c1cc(OCCCC(F)(F)F)ccc12 | > 100 µM | > 100 µM | > 100 µM | > 100 µM | 86 µM
2 | Cc1c2c(cc[n+]1CCc1ccccc1)c1ccc(OCc3ccccc3)cc1n2Cc1ccccc1 |  | 2.4 µM | 2 µM | 2.3 µM | 2.4 µM
3 | Cc1nccc2c1[nH]c1cc(OCc3ccccn3)ccc12 | 23 µM | 16 µM | 21 µM | 20 µM | 20 µM
4 | Cc1nccc2c1[nH]c1cc(OC(=O)c3ccccc3)ccc12 | 31 µM | 30 µM | 27 µM | 53 µM | 42 µM
5 | Cc1nccc2c3ccc(OCc4cccc(F)c4)cc3n(Cc3cccc(F)c3)c12 | 16 µM | 7.9 µM | 0.4 µM | 18 µM | 27 µM
6 | Cc1nccc2c1[nH]c1cc(OCC(C)C)ccc12 | 25 µM | 12 µM | 24 µM | 23 µM | 22 µM
7 | Cc1c2c(cc[n+]1CCO)c1ccc(OCc3ccccc3)cc1n2Cc1ccccc1 |  | 25 µM | 9 µM | 31 µM | 61 µM
8 | Cc1nccc2c3ccc(O)cc3n(Cc3ccccc3)c12 | 35 µM | 35 µM | 80 µM | 79 µM | 81 µM
9 | CCCn1c2cc(OCc3ccccc3)ccc2c2cc[n+](Cc3ccccc3F)c(C)c21 | 0.25 µM | 0.42 µM | 0.39 µM | 0.45 µM | 1.8 µM
10 | Cc1nccc2c1[nH]c1cc(OCCc3ccccc3)ccc12 | 7.9 µM | 14 µM | 9.1 µM | 21 µM | 21 µM
11 | Cc1c2c(cc[n+]1Cc1ccccc1F)c1ccc(OCC3CCCCC3)cc1n2CC1CCCCC1 | 0.35 µM | 0.35 µM | 1.4 µM | 0.25 µM | 0.07 µM
12 | Cc1c2c(cc[n+]1Cc1ccccc1F)c1ccc(OCc3cccc(F)c3)cc1n2Cc1cccc(F)c1 | 3 µM | 1.4 µM | 0.6 µM | 2.2 µM | 0.7 µM
13 | Cc1c2c(cc[n+]1Cc1ccc(F)cc1)c1ccc(OCc3ccccc3)cc1n2Cc1ccccc1 | 2.4 µM | 0.61 µM | 0.6 µM | 1.6 µM | 0.6 µM
14 | COc1ccc2c(c1)[nH]c1c(C)nccc12 [HARMINE] | 18 µM | 32 µM | 32 µM |  | 24 µM
15 | Cc1c2c(cc[n+]1CCc1ccccc1)c1ccc(OCCC(C)C)cc1n2CCC(C)C |  | 3.7 µM | 3.4 µM | 3.1 µM | 3.5 µM
16 | CCCn1c2cc(OCc3ccccc3)ccc2c2cc[n+](Cc3ccc(F)cc3)c(C)c21 | 1 µM | 1.9 µM | 0.88 µM | 3.1 µM | 5.7 µM
17 | Cc1nccc2c1[nH]c1cc(OCCO)ccc12 | 63 µM | 30 µM | 42 µM | 41 µM | 53 µM
18 | Cc1c2c(cc[n+]1CCO)c1ccc(OCC3CCCCC3)cc1n2CC1CCCCC1 |  |  | 1.7 µM | 3.8 µM | 2.6 µM
19 | CCCn1c2cc(OCc3ccccc3)ccc2c2ccnc(C)c21 | 9 µM | 23 µM | 26 µM | 13 µM | 34 µM
20 | Cc1c2c(cc[n+]1Cc1ccccc1F)c1ccc(OCc3ccccc3)cc1n2Cc1ccccc1 | 0.7 µM | 0.38 µM | 0.5 µM | 0.44 µM | 0.37 µM

Row | Compound | IC50 [1] | IC50 [2] | IC50 [3] | IC50 [4] | IC50 [5]
21 | Cc1c2c(cc[n+]1Cc1ccc(F)cc1)c1ccc(OCc3ccc(F)cc3)cc1n2Cc1ccc(F)cc1 | 3.1 µM | 3.7 µM | 2.9 µM | 13 µM | 14 µM
22 | Cc1nccc2c1[nH]c1cc(OCc3ccncc3)ccc12 | 6.3 µM | 5 µM | 2.5 µM | 8.1 µM | 3.6 µM
23 | CCCn1c2cc(OCc3ccccc3)ccc2c2cc[n+](Cc3ccccc3)c(C)c21 | 0.3 µM | 0.57 µM | 0.41 µM | 2.6 µM | 1.7 µM
24 | Cc1c2c(cc[n+]1CCC(C)C)c1ccc(OCC3CCCCC3)cc1n2CC1CCCCC1 |  |  | 0.4 µM | 0.42 µM | 0.43 µM
25 | Cc1c2c(cc[n+]1CCO)c1ccc(OCCC(C)C)cc1n2CCC(C)C |  | 7.6 µM | 2.5 µM | 4 µM | 2.9 µM
26 | Cc1c2c(cc[n+]1CCC(C)C)c1ccc(OCc3ccccc3)cc1n2Cc1ccccc1 |  | 0.5 µM | 0.39 µM | 0.37 µM | 1.2 µM
27 | CCCCCC[n+]1ccc2c3ccc(OCc4ccccc4)cc3n(Cc3ccccc3)c2c1C |  | 1.9 µM | 0.7 µM | 0.6 µM | 3.1 µM
28 | Cc1nccc2c3ccc(OCc4ccc(F)cc4)cc3n(Cc3ccc(F)cc3)c12 | 25 µM | 15 µM | 30 µM | 17 µM | 14 µM
29 | Cc1c2c(cc[n+]1Cc1ccccc1)c1ccc(OCc3ccc(F)cc3)cc1n2Cc1ccc(F)cc1 | 1.4 µM | 0.5 µM | 0.43 µM | 0.9 µM | 0.4 µM
30 | C=CCOc1ccc2c(c1)[nH]c1c(C)nccc12 | 30 µM | 27 µM | 32 µM | 28 µM | 32 µM
31 | Cc1c2[nH]c3cc(OCc4ccccc4)ccc3c2cc[n+]1Cc1ccccc1 | 5.5 µM | 6 µM | 3.9 µM | 3.6 µM | 5.6 µM
32 | Cc1nccc2c3ccc(OCCC(C)C)cc3n(CCC(C)C)c12 |  | 30 µM | 33 µM | 30 µM | 35 µM
33 | Cc1c2c(cc[n+]1Cc1ccc(F)cc1)c1ccc(OCC3CCCCC3)cc1n2CC1CCCCC1 | 1 µM | 1.4 µM | 0.04 µM | 3.1 µM | 2 µM
34 | Cc1nccc2c1[nH]c1cc(OCC3CCCCC3)ccc12 | 8.1 µM | 8.3 µM | 7.5 µM | 22 µM | 7.2 µM
35 | Cc1nccc2c1[nH]c1cc(OCc3ccccc3)ccc12 | 4.1 µM | 21 µM | 9.3 µM | 17 µM | 17 µM
36 | Cc1c2c(cc[n+]1CCc1ccccc1)c1ccc(OCC3CCCCC3)cc1n2CC1CCCCC1 |  |  | 0.2 µM | 0.31 µM | 0.26 µM
37 | CCC[n+]1ccc2c3ccc(OCc4ccccc4)cc3n(Cc3ccccc3)c2c1C |  | 3.4 µM | 2.5 µM | 0.6 µM | 11 µM
38 | Cc1c2c(cc[n+]1CCC(C)C)c1ccc(OCCC(C)C)cc1n2CCC(C)C |  | 0.48 µM | 0.22 µM | 0.26 µM | 0.41 µM
39 | Cc1c2c(cc[n+]1Cc1ccccc1F)c1ccc(OCc3ccc(F)cc3)cc1n2Cc1ccc(F)cc1 | 1.6 µM | 1.6 µM | 0.5 µM | 1.2 µM | 0.43 µM
40 | Cc1c2c(cc[n+]1Cc1ccccc1)c1ccc(OCCC(C)C)cc1n2CCC(C)C |  |  | 0.38 µM | 0.47 µM | 0.6 µM
